Experimental data from patent US10800791B2, “Triazole ACC inhibitors and uses thereof” (Gilead Apollo, LLC, priority 2015, dated 2020).
pIC50: −log10 of the molar value. Values after ≈ are worked out from the molar mass of the structure shown. Read-outs that look alike come from different tables or passages of the source.

Tests used:
[1] = system: Rhizoctonia solani (Rs); assay: Growth inhibition assay of fungal pathogens, Rs; type: cell-based; conditions: 48 h
[2] = target: human (hACC2) (Homo sapiens, UniProt O00763); assay: In vitro ACC inhibition assay (ADP-Glo), hACC2; type: biochemical; conditions: 5 nM ACC2, 20 μM ATP, 20 μM acetyl-CoA
human (hACC2), sequence (O00763 whole entry): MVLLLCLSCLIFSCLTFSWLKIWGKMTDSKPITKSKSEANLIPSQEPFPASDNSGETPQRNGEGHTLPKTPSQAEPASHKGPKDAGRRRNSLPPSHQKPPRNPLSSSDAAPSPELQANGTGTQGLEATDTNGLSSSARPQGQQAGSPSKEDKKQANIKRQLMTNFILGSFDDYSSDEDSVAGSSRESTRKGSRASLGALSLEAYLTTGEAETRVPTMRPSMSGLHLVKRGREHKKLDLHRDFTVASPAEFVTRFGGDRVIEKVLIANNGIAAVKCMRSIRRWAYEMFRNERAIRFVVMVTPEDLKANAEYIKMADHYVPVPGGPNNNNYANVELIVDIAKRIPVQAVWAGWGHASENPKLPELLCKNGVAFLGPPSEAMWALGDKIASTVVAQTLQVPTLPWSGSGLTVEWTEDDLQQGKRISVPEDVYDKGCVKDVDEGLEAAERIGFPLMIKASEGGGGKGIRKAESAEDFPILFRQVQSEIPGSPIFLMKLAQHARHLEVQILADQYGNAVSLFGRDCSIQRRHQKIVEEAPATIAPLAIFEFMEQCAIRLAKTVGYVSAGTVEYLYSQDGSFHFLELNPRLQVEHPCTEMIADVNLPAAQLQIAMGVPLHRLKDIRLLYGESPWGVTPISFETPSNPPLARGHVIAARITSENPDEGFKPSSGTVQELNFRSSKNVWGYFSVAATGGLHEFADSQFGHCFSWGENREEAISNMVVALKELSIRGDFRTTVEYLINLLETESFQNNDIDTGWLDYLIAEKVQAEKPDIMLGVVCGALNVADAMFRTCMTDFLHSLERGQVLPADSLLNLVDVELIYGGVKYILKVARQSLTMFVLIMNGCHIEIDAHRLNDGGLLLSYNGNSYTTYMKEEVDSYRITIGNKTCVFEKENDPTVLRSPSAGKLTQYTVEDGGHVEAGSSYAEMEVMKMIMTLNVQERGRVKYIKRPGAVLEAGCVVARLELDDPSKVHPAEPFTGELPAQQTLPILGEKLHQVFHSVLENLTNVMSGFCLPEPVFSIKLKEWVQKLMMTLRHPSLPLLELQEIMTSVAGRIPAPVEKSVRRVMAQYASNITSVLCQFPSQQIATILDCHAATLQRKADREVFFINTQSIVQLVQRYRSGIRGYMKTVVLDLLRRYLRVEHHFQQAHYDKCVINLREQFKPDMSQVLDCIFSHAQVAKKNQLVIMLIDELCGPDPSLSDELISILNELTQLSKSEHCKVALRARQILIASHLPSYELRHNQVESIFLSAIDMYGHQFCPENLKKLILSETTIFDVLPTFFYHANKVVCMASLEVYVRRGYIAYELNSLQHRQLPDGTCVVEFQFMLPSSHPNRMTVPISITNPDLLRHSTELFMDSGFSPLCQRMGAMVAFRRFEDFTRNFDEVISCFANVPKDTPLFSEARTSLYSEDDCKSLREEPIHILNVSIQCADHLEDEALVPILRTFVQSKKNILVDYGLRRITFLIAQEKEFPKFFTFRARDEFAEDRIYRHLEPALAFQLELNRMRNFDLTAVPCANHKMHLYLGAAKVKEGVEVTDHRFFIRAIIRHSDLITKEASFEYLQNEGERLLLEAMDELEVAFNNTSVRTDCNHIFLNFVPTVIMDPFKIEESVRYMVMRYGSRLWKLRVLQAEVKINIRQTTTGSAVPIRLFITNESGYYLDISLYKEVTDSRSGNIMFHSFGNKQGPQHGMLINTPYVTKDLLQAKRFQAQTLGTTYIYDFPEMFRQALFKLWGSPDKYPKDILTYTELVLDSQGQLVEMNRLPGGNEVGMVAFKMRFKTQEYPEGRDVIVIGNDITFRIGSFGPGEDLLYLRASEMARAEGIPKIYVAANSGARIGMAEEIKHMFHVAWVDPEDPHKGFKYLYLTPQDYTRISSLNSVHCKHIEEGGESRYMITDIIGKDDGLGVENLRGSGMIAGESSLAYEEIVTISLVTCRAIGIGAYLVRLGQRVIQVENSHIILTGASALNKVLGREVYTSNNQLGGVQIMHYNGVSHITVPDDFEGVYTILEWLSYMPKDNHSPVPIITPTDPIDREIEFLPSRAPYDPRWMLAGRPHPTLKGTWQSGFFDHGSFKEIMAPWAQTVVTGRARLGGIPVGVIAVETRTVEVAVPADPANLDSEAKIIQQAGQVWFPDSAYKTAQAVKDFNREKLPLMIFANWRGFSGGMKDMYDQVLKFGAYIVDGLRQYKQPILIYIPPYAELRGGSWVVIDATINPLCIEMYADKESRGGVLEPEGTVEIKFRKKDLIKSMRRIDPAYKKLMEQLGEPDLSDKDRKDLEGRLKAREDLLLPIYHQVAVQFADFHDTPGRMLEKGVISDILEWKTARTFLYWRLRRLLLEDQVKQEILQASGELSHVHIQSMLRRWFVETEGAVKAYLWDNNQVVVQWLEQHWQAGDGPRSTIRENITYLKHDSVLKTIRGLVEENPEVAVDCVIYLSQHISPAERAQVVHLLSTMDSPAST
Protocol: The detailed procedure is as follows. […] 10 μL ADP glo reagent was added. […] 20 μL kinase detection reagent was added.

[3] = mycelial plugs, growth inhibition at 48 hours vs 2% DMSO control, read-out: Concentration at 90% Inhibition Rs
[4] = mycelial plugs, growth inhibition vs 2% DMSO control at 48 hours, read-out: Concentration at 90% Inhibition Rs
[5] = read-out: Concentration at 90% Inhibition Rs, Rhizoctonia solani, mycelial plugs, growth inhibition at 48 hours vs 2% DMSO control
[6] = read-out: Concentration at 90% Inhibition Rs, Rhizoctonia solani, mycelial plugs, growth inhibition vs 2% DMSO control at 48 hours

## COCCCO[C@@H](Cn1c(=O)n(C(C)(C)C(=O)N2CCCC2)c(=O)c2c(C)c(-n3nccn3)sc21)c1cc(F)ccc1OC [Compound I-68, (R)-1-(2-(5-fluoro-2-methoxyphenyl)-2-(3-methoxy-propoxy)ethyl)-5-methyl-3-(2-methyl-1-oxo-1-(pyrrolidin-1-yl)propan-2-yl)-6-(2H-1,2,3-triazol-2-yl)thieno[2,3-d]pyrimidine-2,4(1H,3H)-dione]
[1]; [3]
  IC90: 0.4 µg/mL (≈ 0.636 µM)
[1]; [4]
  IC90: 0.4 µg/mL (≈ 0.636 µM)
[2]; Table 2a
  pIC50: 8.00 to 8.30
[2]; Table 2b, additional results
  pIC50: 8.00 to 8.30

## COCCCO[C@@H](Cn1c(=O)n(C(C)(C)C(=O)NC(C)C)c(=O)c2c(C)c(-n3nccn3)sc21)c1cc(F)ccc1OC [Compound I-69, (R)-2-(1-(2-(5-fluoro-2-methoxyphenyl)-2-(3-methoxy-propoxy)ethyl)-5-methyl-2,4-dioxo-6-(2H-1,2,3-triazol-2-yl)-1,4-dihydrothieno[2,3-d]pyrimidin-3(2H)-yl)-N-isopropyl-2-methylpropanamide]
[1]; [5]
  IC90: 0.4 µg/mL (≈ 0.649 µM)
[1]; [6]
  IC90: 0.4 µg/mL (≈ 0.649 µM)
[2]; Table 2a
  pIC50: 8.00 to 8.30
[2]; Table 2b, additional results
  pIC50: 8.00 to 8.30

## C=CCNC(=O)C(C)(C)n1c(=O)c2c(C)c(-n3nccn3)sc2n(C[C@H](OC2CCOCC2)c2cc(F)ccc2OC)c1=O [Compound I-70, (R)—N-allyl-2-(1-(2-(5-fluoro-2-methoxyphenyl)-2-((tetrahydro-2H-pyran-4-yl)oxy)ethyl)-5-methyl-2,4-dioxo-6-(2H-1,2,3-triazol-2-yl)-1,4-dihydrothieno[2,3-d]pyrimidin-3(2H)-yl)-2-methylpropanamide]
[1]; [5]
  IC90: 0.4 µg/mL (≈ 0.638 µM)
[1]; [6]
  IC90: 0.4 µg/mL (≈ 0.638 µM)
[2]; Table 2a
  pIC50: 8.30 to 9.00
[2]; Table 2b, additional results
  pIC50: 8.30 to 9.00

## C=CCN(C)C(=O)C(C)(C)n1c(=O)c2c(C)c(-n3nccn3)sc2n(C[C@H](OC2CCOCC2)c2cc(F)ccc2OC)c1=O [Compound I-71, (R)—N-allyl-2-(1-(2-(5-fluoro-2-methoxyphenyl)-2-((tetrahydro-2H-pyran-4-yl)oxy)ethyl)-5-methyl-2,4-dioxo-6-(2H-1,2,3-triazol-2-yl)-1,4-dihydrothieno[2,3-d]pyrimidin-3(2H)-yl)-N,2-dimethylpropanamide]
[1]; [3]
  IC90: 0.08 µg/mL (≈ 0.125 µM)
[1]; [4]
  IC90: 0.08 µg/mL (≈ 0.125 µM)
[2]; Table 2a
  pIC50: 8.30 to 9.00
[2]; Table 2b, additional results
  pIC50: 8.30 to 9.00

## C=CCO[C@@H](Cn1c(=O)n(C(C)(C)C(=O)NC(C)C)c(=O)c2c(C)c(-n3nccn3)sc21)c1cc(F)ccc1OC [Compound I-72, (R)-2-(1-(2-(allyloxy)-2-(5-fluoro-2-methoxyphenyl)ethyl)-5-methyl-2,4-dioxo-6-(2H-1,2,3-triazol-2-yl)-1,4-dihydrothieno[2,3-d]pyrimidin-3(2H)-yl)-N-isopropyl-2-methylpropanamide]
[1]; [5]
  IC90: 0.4 µg/mL (≈ 0.684 µM)
[1]; [6]
  IC90: 0.4 µg/mL (≈ 0.684 µM)
[2]; Table 2a
  pIC50: 8.30 to 9.00
[2]; Table 2b, additional results
  pIC50: 8.30 to 9.00

## COc1ccc(F)cc1[C@H](Cn1c(=O)n(C(C)(C)C(=O)NC2CC2)c(=O)c2c(C)c(-n3nccn3)sc21)OC(C)C [Compound I-73, (R)—N-cyclopropyl-2-(1-(2-(5-fluoro-2-methoxyphenyl)-2-isopropoxyethyl)-5-methyl-2,4-dioxo-6-(2H-1,2,3-triazol-2-yl)-1,4-dihydrothieno[2,3-d]pyrimidin-3(2H)-yl)-2-methylpropanamide]
[1]; [3]
  IC90: 0.4 µg/mL (≈ 0.684 µM)
[1]; [4]
  IC90: 0.4 µg/mL (≈ 0.684 µM)
[2]; Table 2a
  pIC50: 8.00 to 8.30
[2]; Table 2b, additional results
  pIC50: 8.00 to 8.30

## COc1ccc(F)cc1[C@H](Cn1c(=O)n(C(C)(C)C(=O)N2CCCC2)c(=O)c2c(C)c(-n3nccn3)sc21)OCCN(C)C [Compound I-75, (R)-1-(2-(2-(dimethylamino)ethoxy)-2-(5-fluoro-2-methoxyphenyl)ethyl)-5-methyl-3-(2-methyl-1-oxo-1-(pyrrolidin-1-yl)propan-2-yl)-6-(2H-1,2,3-triazol-2-yl)thieno[2,3-d]pyrimidine-2,4(1H,3H)-dione]
[1]; [3]
  IC90: > 50 µg/mL
[1]; [4]
  IC90: > 50 µg/mL
[2]; Table 2a
  pIC50: < 7.40
[2]; Table 2b, additional results
  pIC50: < 7.40

## COc1ccc(F)cc1[C@H](Cn1c(=O)n(C(C)(C)C(=O)NC(C)C)c(=O)c2c(C)c(-n3nccn3)sc21)OCCN(C)C [Compound I-76, (R)-2-(1-(2-(2-(dimethylamino)ethoxy)-2-(5-fluoro-2-methoxyphenyl)ethyl)-5-methyl-2,4-dioxo-6-(2H-1,2,3-triazol-2-yl)-1,4-dihydro-thieno[2,3-d]pyrimidin-3(2H)-yl)-N-isopropyl-2-methylpropanamide]
[1]; [5]
  IC90: 10 µg/mL (≈ 16.2 µM)
[1]; [6]
  IC90: > 50 µg/mL
[2]; Table 2a
  pIC50: < 7.40
[2]; Table 2b, additional results
  pIC50: < 7.40

## COc1ccc(F)cc1[C@H](Cn1c(=O)n([C@@H](C)C(=O)NC2CCC2)c(=O)c2c(C)c(-n3nccn3)sc21)OCCO [Compound I-77, (S)—N-cyclobutyl-2-(1-((R)-2-(5-fluoro-2-methoxyphenyl)-2-(2-hydroxyethoxy)ethyl)-5-methyl-2,4-dioxo-6-(2H-1,2,3-triazol-2-yl)-1,4-dihydrothieno[2,3-d]pyrimidin-3(2H)-yl)propanamide]
[1]; [3]
  IC90: 2 µg/mL (≈ 3.41 µM)
[1]; [4]
  IC90: 2 µg/mL (≈ 3.41 µM)
[2]; Table 2a
  pIC50: 7.40 to 8.00
[2]; Table 2b, additional results
  pIC50: 7.40 to 8.00

## COc1ccc(F)cc1[C@H](Cn1c(=O)n([C@@H](C)C(=O)N(C)C(C)C)c(=O)c2c(C)c(-n3nccn3)sc21)OCCO [Compound I-78, (S)-2-(1-((R)-2-(5-fluoro-2-methoxyphenyl)-2-(2-hydroxy-ethoxy)ethyl)-5-methyl-2,4-dioxo-6-(2H-1,2,3-triazol-2-yl)-1,4-dihydrothieno[2,3-d]pyrimidin-3(2H)-yl)-N-isopropyl-N-methylpropanamide]
[1]; [3]
  IC90: 0.08 µg/mL (≈ 0.136 µM)
[1]; [4]
  IC90: 0.08 µg/mL (≈ 0.136 µM)
[2]; Table 2a
  pIC50: 7.40 to 8.00
[2]; Table 2b, additional results
  pIC50: 7.40 to 8.00

## COCCO[C@@H](Cn1c(=O)n(CC(=O)N2CCCC2)c(=O)c2c(C)c(-n3nccn3)sc21)c1cc(F)ccc1OC [Compound I-79, (R)-1-(2-(5-fluoro-2-methoxyphenyl)-2-(2-methoxy-ethoxy)ethyl)-5-methyl-3-(2-oxo-2-(pyrrolidin-1-yl)ethyl)-6-(2H-1,2,3-tria-zol-2-yl)thieno[2,3-d]pyrimidine-2,4(1H,3H)-dione]
[1]; [3]
  IC90: 10 µg/mL (≈ 17 µM)
[1]; [4]
  IC90: > 50 µg/mL
[2]; Table 2a
  pIC50: 7.40 to 8.00
[2]; Table 2b, additional results
  pIC50: 7.40 to 8.00

## COCCO[C@@H](Cn1c(=O)n(CC(=O)NC(C)C)c(=O)c2c(C)c(-n3nccn3)sc21)c1cc(F)ccc1OC [Compound I-80, (R)-2-(1-(2-(5-fluoro-2-methoxyphenyl)-2-(2-methoxy-ethoxy)ethyl)-5-methyl-2,4-dioxo-6-(2H-1,2,3-triazol-2-yl)-1,4-dihydro-thieno[2,3-d]pyrimidin-3(2H)-yl)-N-isopropylacetamide]
[1]; [5]
  IC90: 10 µg/mL (≈ 17.4 µM)
[1]; [6]
  IC90: > 50 µg/mL
[2]; Table 2a
  pIC50: < 7.40
[2]; Table 2b, additional results
  pIC50: < 7.40

## COc1ccc(F)cc1[C@H](Cn1c(=O)n(CC(=O)N2CCCC2)c(=O)c2c(C)c(-n3nccn3)sc21)OCCO [Compound I-81, (R)-1-(2-(5-fluoro-2-methoxyphenyl)-2-(2-hydroxy-ethoxy)ethyl)-5-methyl-3-(2-oxo-2-(pyrrolidin-1-yl)ethyl)-6-(2H-1,2,3-triazol-2-yl)thieno[2,3-d]pyrimidine-2,4(1H,3H)-dione]
[1]; [3]
  IC90: 0.08 µg/mL (≈ 0.14 µM)
[1]; [4]
  IC90: 0.08 µg/mL (≈ 0.14 µM)
[2]; Table 2a
  pIC50: 8.00 to 8.30
[2]; Table 2b, additional results
  pIC50: 8.00 to 8.30

## COc1ccc(F)cc1[C@H](Cn1c(=O)n(CC(=O)NC(C)C)c(=O)c2c(C)c(-n3nccn3)sc21)OCCO [Compound I-82, (R)-2-(1-(2-(5-fluoro-2-methoxyphenyl)-2-(2-hydroxy-ethoxy)ethyl)-5-methyl-2,4-dioxo-6-(2H-1,2,3-triazol-2-yl)-1,4-dihydro-thieno[2,3-d]pyrimidin-3(2H)-yl)-N-isopropylacetamide]
[1]; [5]
  IC90: 2 µg/mL (≈ 3.57 µM)
[1]; [6]
  IC90: 2 µg/mL (≈ 3.57 µM)
[2]; Table 2a
  pIC50: 8.30 to 9.00
[2]; Table 2b, additional results
  pIC50: 8.30 to 9.00

## COc1ccc(F)cc1[C@H](Cn1c(=O)n([C@H](C)C(=O)NC2CCC2)c(=O)c2c(C)c(-n3nccn3)sc21)OCCO [Compound I-84, (R)—N-cyclobutyl-2-(1-((R)-2-(5-fluoro-2-methoxyphenyl)-2-(2-hydroxyethoxy)ethyl)-5-methyl-2,4-dioxo-6-(2H-1,2,3-triazol-2-yl)-1,4-dihydrothieno[2,3-d]pyrimidin-3(2H)-yl)propanamide]
[1]; [3]
  IC90: 0.08 µg/mL (≈ 0.136 µM)
[1]; [4]
  IC90: 0.08 µg/mL (≈ 0.136 µM)
[2]; Table 2a
  pIC50: 8.00 to 8.30
[2]; Table 2b, additional results
  pIC50: 8.00 to 8.30

## COc1ccc(F)cc1[C@H](Cn1c(=O)n([C@H](C)C(=O)N(C)C(C)C)c(=O)c2c(C)c(-n3nccn3)sc21)OCCO [Compound I-85, (R)-2-(1-((R)-2-(5-fluoro-2-methoxyphenyl)-2-(2-hydroxy-ethoxy)ethyl)-5-methyl-2,4-dioxo-6-(2H-1,2,3-triazol-2-yl)-1,4-dihydro-thieno[2,3-d]pyrimidin-3(2H)-yl)-N-isopropyl-N-methylpropanamide]
[1]; [3]
  IC90: 0.08 µg/mL (≈ 0.136 µM)
[1]; [4]
  IC90: 0.08 µg/mL (≈ 0.136 µM)
[2]; Table 2a
  pIC50: 7.40 to 8.00
[2]; Table 2b, additional results
  pIC50: 7.40 to 8.00

## COCCCO[C@@H](Cn1c(=O)n([C@@H](C)C(=O)NC(C)C)c(=O)c2c(C)c(-n3nccn3)sc21)c1cc(F)ccc1OC [Compound I-86, (S)-2-(1-((R)-2-(5-fluoro-2-methoxyphenyl)-2-(3-methoxy-propoxy)ethyl)-5-methyl-2,4-dioxo-6-(2H-1,2,3-triazol-2-yl)-1,4-dihydrothieno[2,3-d]pyrimidin-3(2H)-yl)-N-isopropylpropanamide]
[1]; [5]
  IC90: 2 µg/mL (≈ 3.32 µM)
[1]; [6]
  IC90: 2 µg/mL (≈ 3.32 µM)
[2]; Table 2a
  pIC50: 7.40 to 8.00
[2]; Table 2b, additional results
  pIC50: 7.40 to 8.00

## COCCCO[C@@H](Cn1c(=O)n([C@H](C)C(=O)NC(C)C)c(=O)c2c(C)c(-n3nccn3)sc21)c1cc(F)ccc1OC [Compound I-87, (R)-2-(1-((R)-2-(5-fluoro-2-methoxyphenyl)-2-(3-methoxy-propoxy)ethyl)-5-methyl-2,4-dioxo-6-(2H-1,2,3-triazol-2-yl)-1,4-dihydrothieno[2,3-d]pyrimidin-3(2H)-yl)-N-isopropylpropanamide]
[1]; [3]
  IC90: 0.08 µg/mL (≈ 0.133 µM)
[1]; [4]
  IC90: 0.08 µg/mL (≈ 0.133 µM)
[2]; Table 2a
  pIC50: 8.00 to 8.30
[2]; Table 2b, additional results
  pIC50: 8.00 to 8.30
